Measurements reported in patent US20220273660A1, “MEK INHIBITOR FOR TREATMENT OF STROKE” (EDVINCE AB, priority 2019, published 2022).
“Also recorded” adds a separate entry of the source.

Assays:
[1] = tested on: rat basilar arteries (contractile ETB receptors); test: 48 h organ culture of basilar artery, S6c (ETB agonist)-induced contraction in wire myograph; format: cell-based; details: for inhibition of S6c-induced contraction (initial screening groups): 1 μM inhibitor, S6c contraction relative to 60 mM K+; for inhibition of S6c-induced contraction (initial screening groups) / IC50: 48 h organ culture; for IC50: Rattus norvegicus, inhibition of S6c-induced contraction, read-out: pIC50 (based on the Emax for S6c) (converted)
Experimental: (§1) Rats were sedated with O2/CO2 (30/70%) and sacrificed by decapitation. Brains were gently removed and chilled in a cold oxygenated buffer solution of the following composition: 119 mM NaCl, 4.6 mM KCl, 1.5 mM CaCl2, 1.2 mM MgCl2, 1.2 mM NaH2PO4, 15 mM NaHCO3 and 5.5 mM Glucose; pH 7.4. The basilar artery (BA) was carefully dissected from the brain in a physiological buffer solution followed by either OC (naïve animals) or directly mounted in a wire myograph (arteries from rats which has undergone surgical procedures). Segments were incubated for 48 hours at 37° C. in humidified 5% CO2/O2 in DMEM supplemented with streptomycin and penicillin with inhibitors or vehicle (DMSO). Culture media was changed after 24 hours.
(§2) For contractility measurements, both incubated BAs (ex vivo) and BAs after surgical procedure (in vivo) were cut into segments and mounted on a pair of metal wires (40 μm) in a myograph bath. The arteries from OC were mounted the same way after 48 hours in media. One wire was attached to a micro-meter screw which allows for fine adjustments of the distance between the wires, controlling the vascular tone.
(§3) The segments were equilibrated in physiological buffer aerated with 95% O2/5% CO2, pH of 7.4, temperature set at 37° C. and the wires were separated for isometric pretension at 2 Nm^−1. The arterial segments were exposed two or three times with 60 mM K^+, by exchanging the buffer with a 60 mM K^+ buffer solution. To maintain equal osmolarity, a proportional amount of Na^+ had been removed from the buffer. An absolute cut-off was set at 2.0 mN K^+max for inclusion of arterial segments from rats that underwent the surgical procedure. Endothelium function was evaluated with the addition of 5-HT (3.10^−7 M) followed by carbachol (10^−5 M). For arteries from the OC the protocol was as followed: first a cumulative concentration-response curve to sarafotoxin 6C (S6c, 10^−14-10^−7 M), followed by a concentration-response curve to endothelin-1 (ET-1, 10^−14-10^−7 M). At peak ET-1 (10^−7 M), the buffer was changed to a Ca^2+-free buffer containing 10^−7 M ET-1 and nimodipine (L-type of voltage dependent Ca^2+ channel entry blocker, 10^−7 M). A concentration-response curve to Ca^2+ (0.0125-3 mM) was then performed. When vasodilation was investigated arteries was precontracted with U46619 (1.10^−7-3.10^−7 M) or K^+ (41 mM) and cumulative concentration-response curves was performed by adding calcitonin gene-related peptide (CGRP, 10^−12-10^−7 M), carbachol (10^−10-10^−5 M) or SNP (10^−11-10^−4 M).
(§4) Contractile responses of each segment were adjusted according to the length of the artery and are expressed as mN/mm (Nm^−1). […] To compare ET-1 sensitivity, arteries were normalized to the percentage of the individual vessel ET-1max. When the artery reached maximum contraction before the last concentration was added, the curves were constrained to the max contraction. The relative log IC50/log EC50 is the concentration corresponding to a response midway between the estimates of the lower and upper plateaus. The Emax is the maximal contraction in the concentration response curve and ET-1max is the maximal contraction to ET-1. All quantitative data is presented as mean±standard error of the mean (SEM), unless otherwise stated.

rat basilar arteries = test: 48 h organ culture of basilar artery, endothelium function / vasodilation (carbachol, SNP, CGRP); format: cell-based; details: 1 μM inhibitor; for endothelium function (10-5 M carbachol on arteries precontracted with 5-HT) vs DMSO: 48 h organ culture
Experimental: as §1, with “Brains were gently removed and chilled in a cold oxygenated buffer solution of the following composition: 119 mM NaCl, 4.6 mM KCl, 1.5 mM CaCl2, 1.2 mM MgCl2, 1.2 mM NaH2PO4, 15 mM NaHCO3 and 5.5 mM Glucose; pH 7.4.” left out
as §2
as §3, with “The” for “The segments were equilibrated in physiological buffer aerated with 95% O2/5% CO2, pH of 7.4, temperature set at 37° C. and the wires were separated for isometric pretension at 2 Nm^−1. The”, “A concentration-response curve to Ca^2+ (0.0125-3 mM) was then performed.” left out

[2] = tested on: rat subarachnoid haemorrhage model; test: Rat SAH model, intrathecal treatment, myograph of basilar arteries; format: in vivo
Experimental: as §2
as §3, with “The” for “The segments were equilibrated in physiological buffer aerated with 95% O2/5% CO2, pH of 7.4, temperature set at 37° C. and the wires were separated for isometric pretension at 2 Nm^−1. The”, “A concentration-response curve to Ca^2+ (0.0125-3 mM) was then performed.” left out
If there was only one curve above the cut-off, the concentration-response curve to ET-1 was prioritized. Segments with the highest K^+ response were generally allocated to the concentration-response curve to ET-1. […] The Ca^2+ free buffer solution had similar composition as above, but 1.5 mM CaCl2 was exchanged with 0.03 mM EDTA.
as §4
Rats were anesthetized and prepared for cisternal infusion of autologous blood, which simulates a SAH. Sham-operated rats went through the same procedure, omitting the intracisternal blood injection of 300 μL. At the end of the procedure, a PinPort (PNP3F22, Instech, US) was placed at the end of the ICP catheter to provide access for intrathecal (i.t.) injectable treatments by a PinPort injector (PNP-3M, Instech, US). 24 hours post-surgery, the rats received s.c. injections of Carprofen (Norodyl, 5 mg/kg) (Scanvet, Denmark) for analgesia.
The intrathecal (i.t.) treatment volumes were estimated for a cerebrospinal fluid (CSF) volume of approximately 90 μL (21) and the total dose was administered as three treatments (4 hours, 10 hours and 24 hours) through the PinPort in the ICP catheter placed in the cisterna magna during the surgical procedure. The first and third injections were given under fixation of the rat. […] Animals were given 2.5 ml isotonic saline s.c. to avoid dehydration, immediately after surgery and in conjunction with the 10 hours and 24 hours treatments.

[3] = tested on: rat middle cerebral arteries; test: Contraction of middle cerebral arteries 48 h after tMCAO, wire myograph; details: for agonist-mediated contraction (% of maximum potassium-mediated contraction): occluded MCAs, 48 h after tMCAO, mean±SD
Experimental: Mean arterial blood pressure, pCO2, pO2, pH and plasma glucose were measured prior to the occlusion through an arterial tail catheter (Radiometer; LabChart). A rectal thermometer connected to a homoeothermic blanket was used to maintain body temperature at +37° C. during the surgical procedure. An incision was made in the midline of the neck exposing the right common, internal and external carotid arteries. The common and external carotid arteries were permanently ligated by sutures and an incision was made in the common carotid artery. A laser Doppler probe (Perimed, Järfälla, Sweden) was fixed to the thinned skull in the area corresponding to the area supplied by the middle cerebral artery (1 mm posterior to bregma and 6 mm to the right from the midline). A silicone, rubber-coated monofilament (Doccol Corporation, Redlands, Calif., USA) was inserted through the incision until the tip reached the entrance of the right middle cerebral artery (MCA). The occlusion was confirmed by an abrupt reduction of cortical blood flow that was observed using laser Doppler monitoring. After securing the filament, the skin was sutured and anesthesia was discontinued. After two hours of occlusion, the rats were briefly re-anesthetized to remove the filament and allow reperfusion. […] The animals were allowed to recover 48 hours after surgery with free access to food and water before they were anesthetized with CO2 and decapitated. The brains were removed and immediately chilled in ice-cold bicarbonate buffer solution (for composition, see Drugs, Chemicals and Solutions). Right (occluded) and left (non-occluded) middle cerebral arteries were dissected free from adhering tissue and used for myograph studies.
Contractile properties of middle cerebral arteries were examined using a wire Mulvany-Halpern myograph that records isometric tension (Danish Myo Technology A/S, Aarhus, Denmark). Arteries were cut into cylindrical segments (2 mm), and mounted in the myographs by two parallel 40 μm wires inserted through the lumen. The myograph baths contained 5 ml +37° C. bicarbonate buffer solution (for composition, see Drugs, Chemicals and Solutions) continuously aerated with 5% carbon dioxide in oxygen resulting in pH 7.4. […] The other wire was connected to a force displacement transducer attached to an analogue-digital converter (AD Instruments, Chalgrove, UK). The results were recorded on a computer using a Power Lab unit (AD instruments) and the software LabChart (ADInstruments). After the normalization procedure, the arteries were allowed to equilibrate at this tension for 20 min.
The maximum potassium-mediated contraction was used as a reference value (=100%) for contractile capacity. To eliminate endothelial influence, the production of nitric oxide and prostaglandins was blocked with 100 μM L-NG-nitroarginine methyl ester (L-NAME) and 10 μM indomethacin, respectively, which were present in the tissue baths throughout the experiments on the arteries from the in vivo stroke model.
Receptors for 5-hydroxytryptamine receptors (5-HT) were evaluated by adding 5-carboxamidotryptamine (5-CT, a non-selective 5-HT1 agonist) in concentrations ranging from 10^−11 to 10^−5M (Hansen-Schwartz). The angiotensin type 1 (AT1) receptor was evaluated by cumulative applications of Angiotensin II in concentrations ranging from 10^−12 to 10^−6 M. 30 minutes prior to the experiment, the AT2 receptor antagonist PD123319 was added to eliminate any AT2 receptor-mediated effects. […]

Solubility (statement) = format: physicochemical
[4] = tested on: rat basilar arteries (contractile ETB receptors); details: cited from earlier work
[5] = tested on: rat middle cerebral arteries (ETB receptor); details: former studies, same in vitro setup; cited from earlier work

Molecule | inhibition of S6c-induced contraction (initial screening groups) [1] | IC50 [1] | endothelium function (10-5 M carbachol on arteries precontracted with 5-HT) vs DMSO (rat basilar arteries) | also measured
O=C(NOC[C@H](O)CO)c1ccc(F)c(F)c1Nc1ccc(I)cc1F [PD0325901] | Highly effective; also recorded: almost completely inhibited | 19.5 nM | significant better endothelium function; also recorded: significant increase | estimated inhibitor effect in the ex vivo OC study ([1]; at predicted CSF concentration of approximately 10^-7 M): ~75%; Emax following NO donor sodium nitroprusside (SNP) (rat basilar arteries; 48 h OC): significant differences in the Emax; response to CGRP (rat basilar arteries; 48 h OC): No differences; vasodilation in response to carbachol (10^-10-10^-5 M) (rat basilar arteries; 48 h OC, precontracted with U46619 or K+): improved vasodilation; nimodipine insensitive ET-1max contraction ([2]; SAH + i.t. treatment, Ca2+ curve, 10^-7 M nimodipine): 1.0±0.3 Nm^−1; endothelium function ([2]; animals treated in vivo i.t. after SAH): No significant changes
sarafotoxin 6c [S6c] |  |  |  | agonist-mediated contraction (% of maximum potassium-mediated contraction) ([3]; intact females): 22±16%; agonist-mediated contraction (% of maximum potassium-mediated contraction) ([3]; ovariectomized females): 8±9%
CC(=O)[C@H]1CC[C@H]2[C@@H]3CCC4=CC(=O)CC[C@]4(C)[C@H]3CC[C@]12C [progesterone] |  |  |  | maximum contractile responses of occluded and non-occluded arteries to S6c, Ang II or 5-CT vs placebo ([3]; ovariectomized rats treated 3 weeks, tMCAO): not affected
Cn1cnc2c(F)c(Nc3ccc(Br)cc3F)c(C(=O)NOCCO)cc21 [Binimetinib] | Some effect | 6760 nM |  | 
CNS(=O)(=O)Nc1nccc(Cc2c(C)c3ccc(Oc4ncccn4)cc3oc2=O)c1F [RO5126766] | Some effect | 2090 nM |  | 
O=C(c1ccc(F)c(F)c1Nc1ccc(I)cc1F)N1CC(O)([C@@H]2CCCCN2)C1 [Cobimetinib] | Highly effective | 56.2 nM |  | 
COc1cc(F)c(F)c(Nc2ccc(I)cc2F)c1NS(=O)(=O)C1(C[C@H](O)CO)CC1 [Refametinib] | Borderline effective |  |  | 
N#CC(=C(/N)Sc1ccccc1N)/C(C#N)=C(\N)Sc1ccccc1N [U0126] | Not effective; also recorded: no significant effect |  | poor endothelial response | solubility (Solubility (statement)): poor solubility; effect on ETB specific S6c-induced contractility ([4]; 10 μM, 48 hours OC, known from earlier work): inhibitory effect; established threshold for efficacy ([4]; used till date): 10 µM; concentration used for equivalent inhibition of ETB-receptor mediated contraction [5]: 10 µM
NCCc1c[nH]c2ccc(C(N)=O)cc12 [5-CT, 5-carboxamidotryptamine] |  |  |  | agonist-mediated contraction (% of maximum potassium-mediated contraction) ([3]; intact females): 27±18%; agonist-mediated contraction (% of maximum potassium-mediated contraction) ([3]; ovariectomized females): 8±11%
Cn1c(=O)c(F)c(Nc2ccc(I)cc2F)c2c(=O)n(C[C@@H](O)CO)cnc21 [TAK-733] | Highly effective | 129 nM | significant better endothelium function; also recorded: significant increase | 
